pIC50: −log10 of the molar value.

In general, pIC50 refers to the negative decadic logarithm of the IC50, by convention in mol/L.

Assay [1] has as its system mice. In words: Sucrose preference test, LPS-induced anhedonia. The format is in vivo, mouse. The following applies: LPS 1.25 mg kg^−1 i.p. mice, 15 mg kg^−1 s.c. same protocol. On the procedure:
Anhedonia, or the inability to experience pleasure, is a common symptom of depression. The mood regulatory role of 18 was studied against anhedonia evaluated in the sucrose preference test in animals treated with lipopolysaccharide (LPS), a model of neuroinflammation-induced depressive-like syndrome. Compound 18 (10 mg kg^−1 and 30 mg kg^−1) was daily p.o administered for five consecutive days. Twenty-four hours after the last 18 treatment, LPS 1.25 mg kg^−1 was intraperitoneally injected. Immediately after LPS injection, mice were placed in cages equipped with two bottles: a bottle of 2% sucrose solution and a bottle of water (unsweetened tap water). The consumption of the 2% sucrose solution was evaluated 6 h and 24 h after LPS injection. Amitriptyline (15 mg kg^−1) was used as the reference drug administered following the same protocol.
(§1) Male CD-1 albino mice (22–25 g; Envigo, Varese, Italy) were housed in CeSAL (Centro Stabulazione Animali da Laboratorio, University of Florence, Florence, Italy) and used at least one week after their arrival. Animals were housed in 26 cm × 41 cm cages (12 mice each) and fed with a standard laboratory diet and tap water ad libitum. They were kept at 23 ± 1 °C with a 12 h light/dark cycle, light at 7 a.m. Compound 18 was administered per o.s. whereas amitriptyline was by a s.c. route following the most widely used approach reported in the literature.
Lipopolysaccharide (LPS) from Escherichia coli was purchased from Sigma-Aldrich, (Milan, Italy) freshly dissolved in sterile saline, and injected intraperitoneally (i.p.) at the dose of 1.25 mg kg^−1 [49] after five consecutive days of treatment with compound 18, 1 h after the last administration of the compound. Behavioral tests were performed before 6 h and 24 h after LPS administration.
Mice were placed in cages equipped with a couple of bottles, one containing 2% sucrose solution, the second with water (unsweetened tap water). The consumption of the 2% sucrose solution was evaluated 6 h and 24 h after the beginning of the experiment. The preference index was calculated according to the following formula: preference index = volume consumed sucrose solution/(volume consumed sucrose solution + volume consumed water).
(§2) Behavioral tests were performed by visual observation by researchers blinded to the treatments. Results were expressed as means ± SEM, variance was analyzed by ANOVA. A Bonferroni’s significant difference procedure was used as post-hoc comparison. p values of less than 0.05 and 0.01 were considered significant. Data were analyzed using the “Origin 8.1” software.

In assay [2] the test system is mice. In words: Tail suspension test. The format is in vivo. The note with it: mouse TST, 15 mg kg^−1 s.c., single dose, mean ± SEM of 10 mice; vehicle 99.0 ± 6.8. On the procedure: (§3) To execute the tests, mice were divided into groups, each of which consisted of 10 animals. The tests were performed after a single p.o. administration of compound 18 at different dosages (10 mg Kg^−1 and 30 mg Kg^−1). Amitriptyline (15 mg Kg^−1) was used as the reference drug. Compounds were acutely administrated 26 min before the beginning of the experiment. In the FST (Table 4), the duration of immobility was recorded during the last 4 min of the 6 min test.
A decrease in the duration of immobility is indicative of an antidepressant-like effect. […] Accordingly, a similar activity was shown in the tail suspension test (Table 5) where the immobility time was measured in the first 2 min, when animals react to the inescapable stress, and in the last 4 min of the test, when the behavioral despair is established. Immobility was defined as the absence of any limb or body movements, except those caused by respiration. A reduction in the duration of the immobility time is indicative of an antidepressant-like effect.
Male CD-1 albino mice (22–25 g; Envigo, Varese, Italy) were housed in CeSAL (Centro Stabulazione Animali da Laboratorio, University of Florence, Florence, Italy) and used at least one week after their arrival. Animals were housed in 26 cm × 41 cm cages (12 mice each) and fed with a standard laboratory diet and tap water ad libitum. They were kept at 23 ± 1 °C with a 12 h light/dark cycle, light at 7 a.m. […]
A piece of tape was adhered to the upper middle of the tail of each animal, creating a flap with the overlap of tape. […] The duration of the test was 6 min and the immobility time was measured in the first 2 min, when animals react to the inescapable stress, and in the last 4 min of the test, when the behavioral despair is established. […]
Behavioral tests were performed by visual observation by researchers blinded to the treatments. Results were expressed as means ± SEM, variance was analyzed by ANOVA. […] Data were analyzed using the “Origin 8.1” software.

Assay [3] relates to mice. In words: Forced swimming test. Format: in vivo, mouse. The note with it: mouse FST, 15 mg kg^−1 s.c., single dose 26 min before test, last 4 min of 6 min, mean ± SEM of 10 mice; vehicle 193.7 ± 8.9. On the procedure:
as §3, §1
Mice were individually placed into glass cylinders (height: 25 cm, diameter: 10 cm) containing 12 cm of water maintained at 22–23 °C for 6 min. Immobility was considered the animal floated in the water, in an upright position, and made only small movements to keep its head above water. The immobility time was recorded during the last 4-min of the 6-min test. A decrease in the duration of immobility is indicative of an antidepressant-like effect.
as §2

A further assay deals with T1, hA2B AR (Homo sapiens, UniProt P29275).
T1 construct: expressed in transfected cells; host or cells: CHO cells
T1 sequence (P29275 1-332): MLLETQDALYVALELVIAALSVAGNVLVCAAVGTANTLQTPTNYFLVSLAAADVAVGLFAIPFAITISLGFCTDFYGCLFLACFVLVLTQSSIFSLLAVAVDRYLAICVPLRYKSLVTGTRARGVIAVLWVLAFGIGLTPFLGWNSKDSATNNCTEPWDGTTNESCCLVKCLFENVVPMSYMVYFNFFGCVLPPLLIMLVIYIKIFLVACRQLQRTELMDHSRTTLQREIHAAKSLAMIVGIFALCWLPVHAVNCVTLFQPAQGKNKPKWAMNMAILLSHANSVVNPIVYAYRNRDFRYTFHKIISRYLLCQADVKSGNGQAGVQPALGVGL
On the set-up: method as in PMID 30638876. The following applies: inhibition of NECA-stimulated adenylyl cyclase activity, CHO cells; ref [34]; cited from earlier work.

In the case of `CN(C)CCC=C1c2ccccc2CCc2ccccc21` [amitriptyline, reference compound], the “Sucrose Preference (%), 6 h” value with mice [1] (6 h after LPS, vehicle + LPS 42.3 ± 3.1) was 69.1 ± 4.8 %. Moreover, the “Sucrose Preference (%), 24 h” value in the assay with mice [1] (24 h after LPS, vehicle + LPS 38.0 ± 5.6) turned out to be 70.3 ± 6.4 %. The “Immobility Time” value is on record as 61.6 ± 8.4 s in the assay with mice [2] and 149.4 ± 4.6 s in the assay with mice [3].
For the molecule `Nc1nc(-c2ccccc2)nc2sc(-c3ccccc3)nc12` [compound 20], at hA2B AR, the pIC50 is below 4.52.

These data come from paper PMC8308585, “Design and Synthesis of Novel Thiazolo[5,4-d]pyrimidine Derivatives with High Affinity for Both the Adenosine A1 and A2A Receptors, and Efficacy in Animal Models of Depression” (Pharmaceuticals, 2021).
